Assay results as given in patent US20090012103A1, “SUBSTITUTED HETEROCYCLIC COMPOUNDS” (priority 2007, published 2009).

Assays:
[1] = biological target: T1, wild-type human cardiac sodium channel, hNav1.5 (Homo sapiens, UniProt Q14524); test: Late INa screening assay (late sodium current, PatchXpress whole cell patch clamp); type: cell-based; details: for inhibition at 10 µM: read-out: Late INa % blk
[2] = biological target: T1, wild-type human cardiac sodium channel, hNav1.5; test: Peak INa screening assay (tonic block TB and use-dependent block UDB of peak sodium current); type: cell-based; details: compound at 10 μM
Description: The late sodium current (Late INa) and peak sodium current (Peak INa) assays are performed on an automated electrophysiology platform, PatchXpress 7000A (MDS Analytical Technologies, Sunnyvale, Calif.), which uses the whole cell patch clamp technique to measure currents through the cell membrane of up to 16 cells at a time. The assay uses an HEK293 (human embryonic kidney) cell line heterologously expressing the wild-type human cardiac sodium channel, hNav1.5, purchased from Millipore (Billerica, Mass.). No beta subunits were coexpressed with the Na channel alpha subunit. […] Experiments are carried out at 24-27° C.
For both the Late INa and Peak INa assays, series resistance compensation is set to 50% and whole-cell compensation is performed automatically. […] Currents through open sodium channels are automatically recorded and stored in the DataXpress2 database (MDS Analytical Technologies, Sunnyvale, Calif.). Analysis is performed using DataXpress2 analysis software and data are compiled in Excel.
Compound stocks are routinely made in glass vials to 10 mM in dimethyl sulfoxide (DMSO). In some cases, when compounds are not soluble in DMSO, they are made in 100% ethanol. Stocks are sonicated as necessary. The extracellular solution for screening Late INa is composed of: 140 mM NaCl, 4 mM KCl, 1.8 mM CaCl2, 0.75 mM MgCl2, and 5 mM HEPES with pH adjusted to 7.4 using NaOH. The extracellular solution for screening Peak INa is composed of: 20 mM NaCl, 120 mM N-methyl-D glucamine, 4 mM KCl, 1.8 mM CaCl2, 0.75 mM MgCl2, and 5 mM HEPES with pH adjusted to 7.4 using HCl. The intracellular solution used to perfuse the inside of the cells for both the Late INa and Peak INa assays contains: 120 mM CsF, 20 mM CsCl, 5 mM EGTA, 5 mM HEPES and pH adjusted to 7.4 with CsOH. Compounds are diluted in extracellular solution to 10 μM in glass vials and then transferred to glass well plates before robotic addition to the cells. The 0 Na extracellular solution used at the end of each experiment for the Late INa and Peak INa assays to measure baseline current contains: 140 mM N-methyl-D-glucamine; 4 mM KCl; 1.8 mM CaCl2; 0.75 mM MgCl2; 5 mM HEPES and pH was adjusted to 7.4 with HCl.
Compounds were also evaluated for their effect in several other assays, including their effect on Peak INa. In some cases, the effect on Peak INa was measured using data from the Late INa assay. […] Since the peak INa can be very large, introducing artifacts in the recording, the concentration of Na^+ in the bath is reduced to 20 mM and a nonpermeant cation is added to compensate for the Na^+ that was omitted from the standard extracellular solution (see above). The peak INa assay uses a holding potential of −100 mV and a 20 ms test pulse to 0 mV to activate the channel. As in the Late INa assay, stepping the voltage to 0 mV causes a rapid increase in negative Na current through hNav1.5 that inactivates within a few ms. No late INa activator is added for the peak assay.
For the separate peak INa assay, both tonic (TB) block and use-dependent (UDB) block of peak inward sodium current by 10 μM compound are determined. TB is block of the channel in the resting state, before the channel opens. TB is simulated in this assay by stimulating the channel to open at a low frequency (0.1 Hz). This is done in order to measure the control current amplitude and monitor current rundown, enabling correction for rundown in the calculation of percent block for TB.

hERG potassium channel = hERG potassium channel (Homo sapiens, UniProt Q12809); test: hERG screening assay (PatchXpress patch clamp, CHO cell line)
[3] = tonic block, read-out: Tonic Peak INa % blk
[4] = use-dependent block, read-out: UDB Peak INa % blk

Sequence of hERG potassium channel (Q12809 whole entry): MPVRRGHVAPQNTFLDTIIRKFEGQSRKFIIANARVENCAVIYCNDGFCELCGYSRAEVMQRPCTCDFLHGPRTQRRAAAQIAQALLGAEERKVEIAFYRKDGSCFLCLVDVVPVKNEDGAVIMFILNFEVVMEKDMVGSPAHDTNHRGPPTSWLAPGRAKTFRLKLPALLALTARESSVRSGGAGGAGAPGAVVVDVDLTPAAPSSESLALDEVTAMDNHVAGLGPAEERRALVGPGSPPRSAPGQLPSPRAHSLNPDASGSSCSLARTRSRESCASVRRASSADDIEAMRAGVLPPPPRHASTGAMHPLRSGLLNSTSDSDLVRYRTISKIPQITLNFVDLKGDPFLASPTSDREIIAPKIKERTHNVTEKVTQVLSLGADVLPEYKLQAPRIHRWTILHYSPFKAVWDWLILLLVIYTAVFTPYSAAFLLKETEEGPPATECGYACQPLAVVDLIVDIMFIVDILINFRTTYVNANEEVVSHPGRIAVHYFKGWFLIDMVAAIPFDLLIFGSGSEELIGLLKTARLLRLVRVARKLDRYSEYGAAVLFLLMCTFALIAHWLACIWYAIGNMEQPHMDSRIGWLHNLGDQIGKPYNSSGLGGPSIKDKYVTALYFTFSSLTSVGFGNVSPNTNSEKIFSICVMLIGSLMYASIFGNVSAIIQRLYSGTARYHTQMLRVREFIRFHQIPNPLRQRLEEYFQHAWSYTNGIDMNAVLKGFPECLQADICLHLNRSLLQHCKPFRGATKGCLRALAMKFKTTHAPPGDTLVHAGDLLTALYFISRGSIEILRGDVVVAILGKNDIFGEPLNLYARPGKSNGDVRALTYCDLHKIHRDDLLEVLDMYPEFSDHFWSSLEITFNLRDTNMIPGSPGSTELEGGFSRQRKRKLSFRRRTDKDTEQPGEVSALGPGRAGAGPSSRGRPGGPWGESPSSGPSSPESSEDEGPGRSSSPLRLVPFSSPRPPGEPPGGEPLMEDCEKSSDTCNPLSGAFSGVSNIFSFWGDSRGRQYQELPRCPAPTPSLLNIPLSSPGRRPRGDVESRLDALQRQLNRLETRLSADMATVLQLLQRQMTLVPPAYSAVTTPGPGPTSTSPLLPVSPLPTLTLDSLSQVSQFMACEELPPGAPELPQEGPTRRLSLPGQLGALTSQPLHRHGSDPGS
T1 sequence (Q14524 whole entry): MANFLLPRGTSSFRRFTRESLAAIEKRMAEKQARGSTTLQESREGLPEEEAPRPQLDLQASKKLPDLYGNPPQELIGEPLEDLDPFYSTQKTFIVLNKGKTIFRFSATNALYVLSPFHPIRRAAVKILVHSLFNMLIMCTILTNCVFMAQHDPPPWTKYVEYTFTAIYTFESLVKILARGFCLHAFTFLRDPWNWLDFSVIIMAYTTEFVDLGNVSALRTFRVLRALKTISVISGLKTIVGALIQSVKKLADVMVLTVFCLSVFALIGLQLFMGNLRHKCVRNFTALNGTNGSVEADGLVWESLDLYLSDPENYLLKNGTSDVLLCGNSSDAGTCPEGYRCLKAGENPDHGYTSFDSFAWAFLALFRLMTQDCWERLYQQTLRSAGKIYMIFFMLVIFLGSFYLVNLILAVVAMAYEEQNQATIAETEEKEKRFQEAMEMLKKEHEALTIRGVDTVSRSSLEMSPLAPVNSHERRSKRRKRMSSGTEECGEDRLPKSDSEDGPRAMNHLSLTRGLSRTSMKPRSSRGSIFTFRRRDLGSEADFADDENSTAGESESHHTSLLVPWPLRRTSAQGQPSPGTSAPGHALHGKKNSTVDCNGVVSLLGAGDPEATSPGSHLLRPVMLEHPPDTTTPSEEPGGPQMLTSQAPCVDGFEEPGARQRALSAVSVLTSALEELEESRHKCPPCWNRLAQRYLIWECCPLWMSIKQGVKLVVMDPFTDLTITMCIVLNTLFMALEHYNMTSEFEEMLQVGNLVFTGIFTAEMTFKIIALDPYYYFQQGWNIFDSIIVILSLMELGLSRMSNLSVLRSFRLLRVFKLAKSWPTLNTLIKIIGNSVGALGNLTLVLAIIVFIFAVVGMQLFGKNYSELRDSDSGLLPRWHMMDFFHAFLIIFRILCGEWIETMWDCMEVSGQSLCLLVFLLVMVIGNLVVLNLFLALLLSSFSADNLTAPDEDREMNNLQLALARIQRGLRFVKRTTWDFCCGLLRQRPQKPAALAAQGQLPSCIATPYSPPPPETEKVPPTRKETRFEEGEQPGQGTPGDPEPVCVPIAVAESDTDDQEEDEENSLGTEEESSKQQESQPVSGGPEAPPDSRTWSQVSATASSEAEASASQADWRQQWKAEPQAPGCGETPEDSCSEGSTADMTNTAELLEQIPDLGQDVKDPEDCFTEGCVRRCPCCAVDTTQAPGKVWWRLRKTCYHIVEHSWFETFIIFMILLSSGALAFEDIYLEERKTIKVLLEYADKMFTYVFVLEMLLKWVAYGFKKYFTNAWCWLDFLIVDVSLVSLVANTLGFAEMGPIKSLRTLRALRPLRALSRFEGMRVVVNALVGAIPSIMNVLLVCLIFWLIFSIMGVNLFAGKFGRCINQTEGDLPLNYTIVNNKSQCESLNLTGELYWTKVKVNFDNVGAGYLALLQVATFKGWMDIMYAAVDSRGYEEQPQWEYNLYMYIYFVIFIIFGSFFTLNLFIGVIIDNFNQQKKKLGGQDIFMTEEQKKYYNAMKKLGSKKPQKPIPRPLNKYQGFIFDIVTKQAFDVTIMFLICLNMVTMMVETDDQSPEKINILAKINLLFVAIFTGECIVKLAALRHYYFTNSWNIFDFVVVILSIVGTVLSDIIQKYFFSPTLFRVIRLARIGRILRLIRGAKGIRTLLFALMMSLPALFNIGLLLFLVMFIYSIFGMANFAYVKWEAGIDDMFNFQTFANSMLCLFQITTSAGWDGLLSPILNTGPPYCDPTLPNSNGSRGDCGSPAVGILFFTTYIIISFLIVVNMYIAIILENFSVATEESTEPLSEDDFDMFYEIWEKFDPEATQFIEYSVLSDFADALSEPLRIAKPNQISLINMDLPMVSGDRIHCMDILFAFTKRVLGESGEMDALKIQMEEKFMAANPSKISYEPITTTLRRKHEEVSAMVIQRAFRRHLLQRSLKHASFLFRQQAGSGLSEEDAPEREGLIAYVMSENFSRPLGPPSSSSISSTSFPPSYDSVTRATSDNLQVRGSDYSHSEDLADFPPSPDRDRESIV

## CC1=C(C(=O)NCCCCc2ccccc2)C(c2ccsc2)C2=C(CCCC2=O)N1 (stereo not drawn) [PT-164, 2-methyl-5-oxo-N-(4-phenylbutyl)-4-(thiophen-3-yl)-1,4,5,6,7,8-hexahydroquinoline-3-carboxamide]
[1]; compound at 10 μM
  inhibition at 10 µM: 32%
[2]; [3]
  inhibition at 10 µM: 10.2%

## N#CC1=C(N)OC2=C(C(=O)CC(c3ccccc3)C2)C1c1ccsc1 (stereo not drawn) [PT-102, 2-amino-5-oxo-7-phenyl-4-(thiophen-3-yl)-5,6,7,8-tetrahydro-4H-chromene-3-carbonitrile]
[1]; compound at 10 μM
  inhibition at 10 µM: 44.9%
[2]; [3]
  inhibition at 10 µM: 2.7%

## CC1=C(C(=O)OC(C)C)C(c2c(Br)sc3ccccc23)n2nnnc2N1 (stereo not drawn) [PT-506, isopropyl 7-(2-bromobenzo[b]thiophen-3-yl)-5-methyl-4,7-dihydrotetrazolo[1,5-a]pyrimidine-6-carboxylate]
[1]; compound at 10 μM
  inhibition at 10 µM: 81.4%
[2]; [3]
  inhibition at 10 µM: 48.8%
[2]; [4]
  inhibition at 10 µM: 23%

## CCOC(=O)C1=C(C)Nc2nnnn2C1c1cccc(Oc2cccc(C(=O)OCC)c2)c1 (stereo not drawn) [PT-494, ethyl 7-(3-(3-(ethoxycarbonyl)phenoxy)phenyl)-5-methyl-4,7-dihydrotetrazolo[1,5-a]pyrimidine-6-carboxylate]
[1]; compound at 10 μM
  inhibition at 10 µM: 71.8%
[2]; [3]
  inhibition at 10 µM: 6.7%
[2]; [4]
  inhibition at 10 µM: 2%

## CCOC(=O)C1=C(C)Nc2nnnn2C1c1cccc(OCc2cccc(C(=O)OC)c2)c1 (stereo not drawn) [PT-495, ethyl 7-(3-(3-(methoxycarbonyl)benzyloxy)phenyl)-5-methyl-4,7-dihydrotetrazolo[1,5-a]pyrimidine-6-carboxylate]
[1]; compound at 10 μM
  inhibition at 10 µM: 54.2%
[2]; [3]
  inhibition at 10 µM: 20.7%
[2]; [4]
  inhibition at 10 µM: 11.6%

## CC1=C(C(=O)O[C@@H](C)c2ccccc2)C(c2sc3ccccc3c2C)n2nccc2N1 (stereo partly drawn) [PT-244, (S)-1-phenylethyl 5-methyl-7-(3-methylbenzo[b]thiophen-2-yl)-4,7-dihydropyrazolo[1,5-a]pyrimidine-6-carboxylate]
[1]; compound at 10 μM
  inhibition at 10 µM: 68.7%
[2]; [3]
  inhibition at 10 µM: 66.2%
[2]; [4]
  inhibition at 10 µM: 44%

## CCOC(=O)C1=C(C)NC(C)=C(C(=O)OCC)C1c1ccsc1 [PT-110, diethyl 2,6-dimethyl-4-(thiophen-3-yl)-1,4-dihydropyridine-3,5-dicarboxylate]
[1]; compound at 10 μM
  inhibition at 10 µM: 41.8%
[2]; [3]
  inhibition at 10 µM: 0%

## CCOC(=O)C1=C(C)NC(C)=C(C(=O)OCC)C1c1cc2ccccc2o1 [PT-122, diethyl 4-(benzofuran-2-yl)-2,6-dimethyl-1,4-dihydropyridine-3,5-dicarboxylate]
[1]; compound at 10 μM
  inhibition at 10 µM: 80.3%
hERG potassium channel; 1 μM
  hERG Patch Clamp hERG % blk: 15.5%
hERG potassium channel; 10 μM
  hERG Patch Clamp hERG % blk: 55.0%

## CC1=C(C(=O)OCc2ccccc2)C(c2nccs2)n2nnnc2N1 (stereo not drawn) [PT-364, benzyl 5-methyl-7-(thiazol-2-yl)-4,7-dihydrotetrazolo[1,5-a]pyrimidine-6-carboxylate]
[1]; compound at 10 μM
  inhibition at 10 µM: 25.8%
hERG potassium channel; 1 μM
  hERG Patch Clamp hERG % blk: 10.0%
hERG potassium channel; 10 μM
  hERG Patch Clamp hERG % blk: 17.5%

## CC1=C(C(=O)OC(C)C)C(c2cccc3ccccc23)n2nnnc2N1 (stereo not drawn) [PT-021, isopropyl 5-methyl-7-(naphthalen-1-yl)-4,7-dihydrotetrazolo[1,5-a]pyrimidine-6-carboxylate]
[1]; compound at 10 μM
  inhibition at 10 µM: 48.2%
hERG potassium channel; 1 μM
  hERG Patch Clamp hERG % blk: 13.0%
hERG potassium channel; 10 μM
  hERG Patch Clamp hERG % blk: 43.5%

## CCOC(=O)C1=C(CC)Nc2nnnn2C1c1cccc2ccccc12 (stereo not drawn) [PT-010, ethyl 5-ethyl-7-(naphthalen-1-yl)-4,7-dihydrotetrazolo[1,5-a]pyrimidine-6-carboxylate]
[1]; compound at 10 μM
  inhibition at 10 µM: 36.1%
hERG potassium channel; 1 μM
  hERG Patch Clamp hERG % blk: 12.5%
hERG potassium channel; 10 μM
  hERG Patch Clamp hERG % blk: 30.0%

## CC1=C(C(=O)OCc2ccccc2)C(c2nccs2)n2nccc2N1 (stereo not drawn) [PT-363, benzyl 5-methyl-7-(thiazol-2-yl)-4,7-dihydropyrazolo[1,5-a]pyrimidine-6-carboxylate]
[1]; compound at 10 μM
  inhibition at 10 µM: 40.9%
hERG potassium channel; 1 μM
  hERG Patch Clamp hERG % blk: 10.0%
hERG potassium channel; 10 μM
  hERG Patch Clamp hERG % blk: 19.5%

## CCOC(=O)C1=C(C)NC(C)=C(C(=O)OCC)C1c1cccs1 [PT-111, diethyl 2,6-dimethyl-4-(thiophen-2-yl)-1,4-dihydropyridine-3,5-dicarboxylate]
[1]; compound at 10 μM
  inhibition at 10 µM: 69.2%
hERG potassium channel; 1 μM
  hERG Patch Clamp hERG % blk: 11.5%
hERG potassium channel; 10 μM
  hERG Patch Clamp hERG % blk: 48.5%

## CC1=C(C(=O)OCc2ccccc2)C(c2cccc3c2OCO3)n2nnnc2N1 (stereo not drawn) [PT-034, benzyl 7-(benzo[d][1,3]dioxol-4-yl)-5-methyl-4,7-dihydrotetrazolo[1,5-a]pyrimidine-6-carboxylate]
[1]; compound at 10 μM
  inhibition at 10 µM: 52.4%
hERG potassium channel; 1 μM
  hERG Patch Clamp hERG % blk: 14.5%
hERG potassium channel; 10 μM
  hERG Patch Clamp hERG % blk: 56.0%

## CCOC(=O)C1=C(C)Nc2nnnn2C1c1sc2ccccc2c1C (stereo not drawn) [PT-018, ethyl 5-methyl-7-(3-methylbenzo[b]thiophen-2-yl)-4,7-dihydrotetrazolo[1,5-a]pyrimidine-6-carboxylate]
[1]
  inhibition at 10 µM: 36.5%
hERG potassium channel; 1 μM
  hERG Patch Clamp hERG % blk: 14.5%
hERG potassium channel; 10 μM
  hERG Patch Clamp hERG % blk: 36.5%

## CC1=C(C(=O)OCc2ccccc2)C(c2ccccc2-c2ccccc2)n2nnnc2N1 (stereo not drawn) [PT-025, benzyl 7-(biphenyl-2-yl)-5-methyl-4,7-dihydrotetrazolo[1,5-a]pyrimidine-6-carboxylate]
[1]; compound at 10 μM
  inhibition at 10 µM: 78.8%
hERG potassium channel; 1 μM
  hERG Patch Clamp hERG % blk: 11.0%
hERG potassium channel; 10 μM
  hERG Patch Clamp hERG % blk: 53.0%

## CCOC(=O)C1=C(C)Nc2[nH]ncc2C1c1ccccc1Br (stereo not drawn) [PT-448, ethyl 4-(2-bromophenyl)-6-methyl-4,7-dihydro-1H-pyrazolo[3,4-b]pyridine-5-carboxylate]
[1]; compound at 10 μM
  inhibition at 10 µM: 33.6%
hERG potassium channel; 1 μM
  hERG Patch Clamp hERG % blk: 10.0%
hERG potassium channel; 10 μM
  hERG Patch Clamp hERG % blk: 57.5%

## H-furo[3,4-e]pyrazolo[3,4-b]pyridin-5(4H)-one [PT-079]
[1]; compound at 10 μM
  Late INa % blk: 49.0%
hERG potassium channel; 1 μM
  hERG Patch Clamp hERG % blk: 57.5%
hERG potassium channel; 10 μM
  hERG Patch Clamp hERG % blk: 96.5%

## COc1cc(Cl)ccc1COC(=O)C1=C(C)NC2=C(C(=O)CCC2)C1c1c(Cl)cccc1Cl (stereo not drawn) [PT-303, 4-chloro-2-methoxybenzyl 4-(2,6-dichlorophenyl)-2-methyl-5-oxo-1,4,5,6,7,8-hexahydroquinoline-3-carboxylate]
[1]; compound at 10 μM
  inhibition at 10 µM: 59.9%
hERG potassium channel; 1 μM
  hERG Patch Clamp hERG % blk: 12.0%
hERG potassium channel; 10 μM
  hERG Patch Clamp hERG % blk: 30.5%

## CCOC(=O)C1=C(C)Nc2c(c(C)nn2C)C1c1cccc2ccccc12 (stereo not drawn) [PT-440, ethyl 1,3,6-trimethyl-4-(naphthalen-1-yl)-4,7-dihydro-1H-pyrazolo[3,4-b]pyridine-5-carboxylate]
[1]; compound at 10 μM
  inhibition at 10 µM: 42.8%
hERG potassium channel; 1 μM
  hERG Patch Clamp hERG % blk: 12.0%
hERG potassium channel; 10 μM
  hERG Patch Clamp hERG % blk: 48.0%

## CC1=C(C(=O)OCc2ccccc2)C(c2ccc(N(C)C)cc2[N+](=O)[O-])n2nnnc2N1 (stereo not drawn) [PT-409, benzyl 7-(4-(dimethylamino)-2-nitrophenyl)-5-methyl-4,7-dihydrotetrazolo[1,5-a]pyrimidine-6-carboxylate]
[1]; compound at 10 μM
  inhibition at 10 µM: 43.1%
hERG potassium channel; 1 μM
  hERG Patch Clamp hERG % blk: 27.0%
hERG potassium channel; 10 μM
  hERG Patch Clamp hERG % blk: 78.5%

## CC1=C(C(=O)OCc2ccccc2)C(c2ccccc2N2CCCCC2)n2nnnc2N1 (stereo not drawn) [PT-342, benzyl 5-methyl-7-(2-(piperidin-1-yl)phenyl)-4,7-dihydrotetrazolo[1,5-a]pyrimidine-6-carboxylate]
[1]; compound at 10 μM
  inhibition at 10 µM: 80.1%
hERG potassium channel; 1 μM
  hERG Patch Clamp hERG % blk: 10.0%
hERG potassium channel; 10 μM
  hERG Patch Clamp hERG % blk: 47.5%

## CC1=C(c2nnc(CCc3ccccc3)o2)C(c2cccc3ccccc23)n2nnnc2N1 (stereo not drawn) [PT-252, 2-(5-methyl-7-(naphthalen-1-yl)-4,7-dihydrotetrazolo[1,5-a]pyrimidin-6-yl)-5-phenethyl-1,3,4-oxadiazole]
[1]; compound at 10 μM
  inhibition at 10 µM: 70%
hERG potassium channel; 1 μM
  hERG Patch Clamp hERG % blk: 10.5%
hERG potassium channel; 10 μM
  hERG Patch Clamp hERG % blk: 78.0%
